Test results: the METLIN SMRT retention time set (Domingo-Almenara et al. 2019)

Assay: gradient 5% acetonitrile 3 min, to 50% in 2 min, to 85% in 15 min, held 3 min, 100 µL/min
Conditions: column: Zorbax Extend-C18 2.1 x 50 mm; eluents: water / acetonitrile, 0.1% formic acid
Procedure, shortened: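 The mobile phases were water and acetonitrile, each with 0.1% formic acid, pumped at 100 μL/min through a Zorbax Extend-C18 column (2.1 × 50 mm, 1.8 μm). Pure standards were injected as mixtures of ~100 molecules and detected by a quadrupole time-of-flight mass spectrometer in positive and negative ionization mode. Retention time came from computationally picked adduct peaks, each inspected by hand.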

SMILES	RP-LC retention time
COc1ccc(OCc2noc(CNC(=O)c3oc4cc(OC)ccc4c3C)n2)cc1	925 s
CCc1nnc(-c2ccc3ccn(CC(=O)Nc4cc(OC)ccc4OC)c3c2)o1	770 s
O=C(NCc1csc(-c2cccs2)n1)C1CCN(C(=O)c2c(F)cccc2F)CC1	769 s
O=C(CN1C(=O)NC(c2ccccc2Cl)C2=C1COC2=O)NCc1ccccc1Cl (stereo unspecified)	801 s
CCc1cc(=O)n(CC(=O)Nc2ccc(C)c(C)c2)c(N)n1	640 s
CCS(=O)(=O)N1CCCc2cc(C(=O)NCc3ccco3)ccc21	945 s
O=S(=O)(Nc1cccc(F)c1)c1ccccc1-c1nc(-c2ccccc2)no1	1170 s
Cc1cc(-c2nnc(-c3ccccc3)o2)c(C)n1CC(=O)Nc1cc(F)ccc1F	994 s
O=C1Nc2ccccc2SC1C(=O)N1CCC(C(=O)N2CCn3c2nc2ccccc23)CC1 (stereo unspecified)	688 s
CCN1CCC2(CC1)OC(=O)C(C)=C2C(=O)NCC(C)c1ccccc1 (stereo unspecified)	630 s
Cc1ccc(S(=O)(=O)NCC(=O)Nc2ccc3c(c2)Cc2ccccc2-3)cc1	975 s
CCN(CC)C(=O)c1cnc2snc(C)c2c1N1CCC(C(=O)Nc2cc(OC)c(OC)c(OC)c2)CC1	810 s
CC1CCN(S(=O)(=O)c2ccc(-c3nnc(C(=O)NCc4ccc(Cl)cc4)o3)cc2)CC1	1120 s
O=C(NCc1cccc(F)c1)N1C[C@@H]2C[C@H](NS(=O)(=O)c3cccnc3)[C@H]1C2	688 s
Cc1ccccc1C(=O)Nc1nc(-c2ccc3c(c2)N(C)C(=O)C(C)O3)cs1 (stereo unspecified)	1010 s
COc1ccc(S(=O)(=O)N2CCC(c3noc(-c4ccccc4C)n3)CC2)cc1OC	1090 s
Cc1cc(C)n2c(Nc3ccccc3)c(-c3ccccc3)nc2n1	671 s
CCN(C(=O)c1ccc2c(c1)OCO2)c1nc(-c2ccccc2)cs1	1200 s
CC1(C)COc2ccc(NC(=O)CN3C(=O)c4ccccc4C3=O)cc2NC1=O	738 s
O=C(NC1CCN(c2cc(-c3cccs3)[nH]n2)C1)c1cccc(Cl)c1 (stereo unspecified)	719 s
Cn1cc(C2=CCN(S(=O)(=O)c3ccc(F)cc3)CC2)c2cccnc21	949 s
O=C(Cn1c(=O)c2cccn2c2ccc(F)cc21)N1CCCCCC1	840 s

SMILES	RP-LC retention time
CN(C)c1nc(Nc2ccc(F)cc2)c2cnn(-c3ccccc3)c2n1	1310 s
Cc1ccc2c(Nc3ccc(F)c(C#N)c3)c(C(=O)N3CCOCC3)cnc2n1	598 s
CC1CCN(C(=O)C2=CN(c3cc(F)cc(F)c3)c3ccccc3S2(=O)=O)CC1	945 s
CN1CC(=O)N(CC(=O)NC2CCCCCCC2)c2ccccc2C1=O	717 s
Cc1[nH]c(-c2ccc(Cl)cc2)cc1C(=O)NC1CCCC1	947 s
Cc1nn(CC(=O)NCCN(C)C)c(=O)c2cc(-c3ccccc3)nn12	625 s
O=C(NCc1ccc2c(c1)OCO2)c1ccc2ncnc(N3CCCC3)c2c1	630 s
CN1C(=O)c2ccccc2Sc2cc(-c3noc(CNC(=O)c4ccco4)n3)ccc21	702 s
O=C(NC1CCCC1)c1nc(Nc2ccc(F)cc2)c2ccccc2n1	824 s
CC1(CNC(=O)NCc2cccc(F)c2)CCOCC1	684 s
CCOc1ccccc1CNC(=O)CCc1nnc2c3cc(-c4ccc(OC)cc4)nn3ccn12	797 s
CSc1ccc(NC(=O)NC2CCN(c3cc(C)cc(C)c3)C2=O)cc1 (stereo unspecified)	916 s
O=C(c1ccc2cc[nH]c2c1)N1CCN(c2cc(-c3ccccc3)[nH]n2)CC1	748 s
O=C(Cc1c[nH]c2ccccc12)N1CCCN(C2CCN(CC3CC3)C2=O)CC1 (stereo unspecified)	610 s
O=C(NC1CC1)c1ccc(N2CCC(NCc3ccc(Br)cc3)C2)nc1 (stereo unspecified)	572 s
O=C(c1n[nH]c2c1CCCC2)N1CCn2c(nnc2-c2ccccc2)C1	645 s
COC(=O)c1ccc2c(=O)n(-c3ccc(Cl)cc3)c(N3CCCC3)nc2c1	1060 s
CN1C(=O)c2cc(C(=O)NCc3ccccc3Cl)nn2CC1(C)C(=O)NCc1ccccc1 (stereo unspecified)	789 s
CC1CCCN(C(=O)C2CC(=O)N(c3ccc4c(c3)CCN4C(=O)C3CC3)C2)C1 (stereo unspecified)	758 s
COC(=O)CNC(=O)N1CCCCCC1c1cccc(C)c1 (stereo unspecified)	840 s
CCOC(=O)N1CCN(S(=O)(=O)c2ccc(C(=O)Nc3cccc(C)n3)cc2)CC1	721 s
O=C(NCc1ccc(F)c(Cl)c1)C1CCN(c2cnc3nccnc3c2)CC1	757 s

SMILES	RP-LC retention time
O=C(NCc1ccco1)C1CCN(Cc2cc3ccccc3n2Cc2cccc(Cl)c2)CC1	853 s
CCNC(=O)NCCc1cn(CC(C)C)c2ncccc12	631 s
O=C(CCCc1ccccc1)N1CCN(c2ccc(-n3cccn3)nn2)CC1	758 s
Cc1c(F)cccc1NC(=O)NC1CCN(c2ccc(F)cc2)C1=O (stereo unspecified)	866 s
Cc1ccc(C)c(NC(=O)N2CCC(OC3CCN(S(C)(=O)=O)CC3)CC2)c1	771 s
Cc1ccc2[nH]cc(CCN3CC(C(=O)Nc4ccc5c(c4)OCCO5)CC3=O)c2c1 (stereo unspecified)	777 s
CN1CCN(C(=O)C(=O)Nc2c3c(nn2-c2ccc(Cl)cc2)CSC3)CC1	634 s
CCC(C)(C)C(=O)NC1CCN(C2=NS(=O)(=O)C(c3cccc(Cl)c3)=C2C)CC1	915 s
O=c1c2cc3c(cc2nc(SCc2nc(-c4cccc(F)c4)no2)n1CC1CCCO1)OCO3 (stereo unspecified)	1110 s
CSc1ccccc1CN1CCC(CNC(=O)c2ccccc2Cl)CC1	722 s
COc1ccc(S(=O)(=O)NCc2ccc3c(c2)CCN3C(=O)CC(C)C)cc1OC	858 s
CCCN1CCN(c2cc(C(=O)O)c3cc(NS(=O)(=O)c4ccc(OCC)cc4)ccc3n2)CC1	624 s
O=C(NCCN1CCN(c2ccccc2F)CC1)C1CCCN(c2nc3cccnc3s2)C1 (stereo unspecified)	632 s
CCN1CCC(N(Cc2ccc3c(c2)OCO3)C(=O)Nc2ccc(OC)cc2OC)CC1	659 s
Cc1ccc(C(=O)N2CCC3(C2)C(=O)N(C)c2ccccc23)cc1F (stereo unspecified)	815 s
Cc1nn(-c2ccc(Cl)nn2)c(C)c1Cl	996 s
CC(NC(=O)c1ccco1)c1nc(-c2ccc3ncn(C)c3c2)no1 (stereo unspecified)	599 s
NNC(=O)CNc1cccc(Br)c1	673 s
Cc1cccc(-c2nn3c(N4CCN(c5ccccn5)CC4)cc(C)nc3c2C)c1	648 s
Cc1nc(-c2cccnc2)nc2c1CC(=O)N2C(C)C	654 s
Cc1ccc(-c2nc3n(CC(=O)NC4CCCC4)c4c(c(=O)n3n2)CCC4)cc1	789 s
CC(C)c1ccc(S(=O)(=O)N2CCCC2c2nc(-c3ccc(F)cc3)no2)cc1 (stereo unspecified)	1260 s
